Data from patent US20060252825A1, “Crystal forms of {[(2r)-7-(2,6-dichlorophenyl)-5-fluoro-2,3-dihydro-1-benzofuran-2-yl]methyl}amine hydrochloride” (Wyeth, priority 2005, published 2006).
“And” between values parts separate entries of the source, which are not always exact repeats. Equal values may be shown once. Where a name gives a salt, the structure may show the parent alone.

What was measured:
Type in all cases: physicochemical
[1] = Assessment of stability in water (slurry at 25° C., form identified by XRPD); settings: slurried in water at 25° C.; for Form after 2 days / Form after 4 days: Table A; for Form after 2 days / Form after 4 days / Stability in water (overall summary): hydrochloride; for Stability in water (overall summary): summary of Tables A-D
Protocol: Form I, Form II or a mixture thereof was slurried in water at 25° C. to assess stability. […] XRPD was used to identify crystalline form.

[2] = Solubility in water, gravimetric method
Protocol: Solubility was measured using the gravimetric method by separately suspending Form I and Form II in water with stirring at room temperature for 6 hours.

[3] = Conversion of Form I to Form II by slurrying in water at 25° C. (XRPD); settings: slurried in water at 25° C. with stirring
Protocol: Form I was slurried in water for 1 day and for 5 days at 25° C. with stirring.

[4] = Conversion of Form II to Form I by slurrying in t-butylmethyl ether (XRPD); settings: slurried in t-butylmethyl ether for 4 days at room temperature
From the text: Form II was slurried in t-butylmethyl ether for 4 days at room temperature. The resulting solid was characterized by XRPD as Form I.

| Compound | Form after 2 days ([1]; XRPD) | solubility at 6 h ([2]; water, thermodynamic from solid, suspended in water with stirring at room temperature for 6 hours, gravimetric) [mg/mL] | Form after 4 days ([1]; XRPD) | Form after 3 days ([1]; Table C, XRPD) | Stability in water (overall summary) [1] | Crystalline form after 1 day ([3]; 1 day) | Crystalline form after 5 days ([3]; 5 days) | Relative thermodynamic stability based on solubility data ([2]; inferred from water solubility of Forms I and II, hydrochloride) | Solubility-Water ([2]; suspended in water with stirring at room temperature for 6 hours, gravimetric, hydrochloride) | Resulting solid form [4] |
| --- | --- | --- | --- | --- | --- | --- | --- | --- | --- | --- |
| NC[C@H]1Cc2cc(F)cc(-c3c(Cl)cccc3Cl)c2O1 [50:50 I:II, {[(2R)-7-(2,6-dichlorophenyl)-5-fluoro-2,3-dihydro-1-benzofuran-2-yl]methyl}amine hydrochloride] | trace I |  |  |  |  |  |  |  |  |  |
| NC[C@H]1Cc2cc(F)cc(-c3c(Cl)cccc3Cl)c2O1 [Form I, {[(2R)-7-(2,6-dichlorophenyl)-5-fluoro-2,3-dihydro-1-benzofuran-2-yl]methyl}amine hydrochloride] | I, trace II | 67 | Increased amount of II | mainly II, some I | converted to Form II under most of the conditions tested | substantial conversion of the solid from Form I to Form II | no detectable amount of Form I |  |  |  |
| NC[C@H]1Cc2cc(F)cc(-c3c(Cl)cccc3Cl)c2O1 [Form II, {[(2R)-7-(2,6-dichlorophenyl)-5-fluoro-2,3-dihydro-1-benzofuran-2-yl]methyl}amine hydrochloride] |  |  |  |  | stable in water |  |  | thermodynamically more stable in water than Form I | 51 mg/mL and 50 mg/mL | Form I |
| NC[C@H]1Cc2cc(F)cc(-c3c(Cl)cccc3Cl)c2O1 [I seeded with II, {[(2R)-7-(2,6-dichlorophenyl)-5-fluoro-2,3-dihydro-1-benzofuran-2-yl]methyl}amine hydrochloride] | increased amount of II |  | increased amount of II |  |  |  |  |  |  |  |
